Laboratory results taken from patent US12419887B2, “Transitioning patients treated for pulmonary arterial hypertension to selexipag” (ACTELION PHARMACEUTICALS LTD, priority 2019, dated 2025).

Assays:
Assay type in all cases: in vivo, human
[1] = tested on: patients being treated for pulmonary arterial hypertension transitioned from a non-selexipag PPA; test: Change from baseline in assessed risk category after transition to selexipag
Source text: (§1) Assessments performed closest to selexipag initiation were considered to be “baseline.” Data at 6 and 12 months post-baseline were as follows (i) the window for the 6-month measurements was >0 months and <9 months; (ii) the window for the 12-month measurements was ≥9 months and <16 months; and (iii) the assessment closest to the 6- or 12-month time point, respectively, was used.
Risk categories were assigned. Seven variables were used: World Health Organization or New York Heart Association functional class (FC), 6-minute walk distance (6MWD), N-terminal prohormone of brain natriuretic peptide (NT-proBNP), brain natriuretic peptide (BNP), and hemodynamic parameters, including right atrial pressure, cardiac index, and mixed venous oxygen saturation. If both NT-proBNP and BNP were available, the risk classification of each value was averaged together and the mean was used in the risk categorization. Thresholds from the 2015 European Society of Cardiology/European Respiratory Society Guidelines were applied to assign a risk score for each available variable: 1=low risk, 2=intermediate risk, and 3=high risk. The risk score from all available variables was then averaged. The resulting number was rounded to the nearest integer to produce the patient's individual risk category: 1=low risk, 2=intermediate risk, and 3=high risk

[2] = tested on: patients being treated for pulmonary arterial hypertension transitioned from a non-selexipag PPA; test: Change in WHO/NYHA functional class (FC) from baseline after transition to selexipag; settings: for patients with worsened FC / patients with improved FC: all transitioned patients
Source text: (§2) In this example, the effectiveness of transitioning patients from a non-selexipag PPA to selexipag was investigated. Patients were followed for up to 18 months and data were collected at the time of initiation, enrollment, and approximately quarterly post-enrollment. Eligible patients were aged ≥18 years and either newly initiated on selexipag at the time of enrollment or were already receiving selexipag and have a documented titration regimen.
(§3) “Transitioned patients” were defined as patients who were (i) taking a non-selexipag PPA for ≥30 days at the time of selexipag initiation who stopped the initial agent ≤7 days before selexipag initiation; or (ii) continued taking the initial, non-selexipag PPA when they initiated selexipag and gradually transitioned off that agent.
as §1

[3] = tested on: patients being treated for pulmonary arterial hypertension transitioned from a non-selexipag PPA; test: Change from baseline in 6-minute walk distance (6MWD) after transition to selexipag
Source text: as §2, §3, §1

[4] = tested on: patients being treated for pulmonary arterial hypertension; test: Safety: selexipag discontinuation and adverse events leading to discontinuation
Source text: as §2
AEs known to be associated with the selexipag mechanism of action were only reported if they were serious, led to selexipag discontinuation, or reflected an unusual pattern of severity.
Safety data were collected only for the period during which patients were enrolled. The median total duration of selexipag treatment on study was 13.7 months (IQR: 9.1-17.8 months) for all patients: 13.8 months (IQR: 9.2-17.8 months) for patients in the inhaled/oral group and 13.4 months (IQR: 6.8-15.9 months) for patients in the parenteral group.

[5] = transitioned from oral/inhaled non-selexipag PPA, 6 months
[6] = transitioned from oral/inhaled non-selexipag PPA, 12 months
[7] = transitioned from parenteral non-selexipag PPA, 6 months
[8] = transitioned from parenteral non-selexipag PPA, 12 months

## CC(C)N(CCCCOCC(=O)NS(C)(=O)=O)c1cnc(-c2ccccc2)c(-c2ccccc2)n1 [selexipag, 2-{4-[(5,6-diphenylpyrazin-2-yl)(propan-2-yl)amino]butoxy}-N-(methanesulfonyl)acetamide]
[1]; [5]
  patients with improved risk status: 21%
  patients with maintained risk status: 63%
  patients with worsened risk status: 17%
[1]; [6]
  patients with improved FC (in the risk status paragraph): 24%
  patients with maintained risk status: 61%
  patients with worsened FC (in the risk status paragraph): 15%
[1]; [7]
  patients with improved risk status: 27%
  patients with maintained or improved risk status: 67%
  patients with maintained risk status: 40%
  patients with worsened risk status: 33%
[1]; [8]
  patients with improved risk status: 29%
  patients with maintained or improved risk status: 86%
  patients with maintained risk status: 57%
  patients with worsened risk status: 14%
[2]; 12 months after transitioning, regardless of type of prior non-selexipag PPA
  disease course in the majority of patients as indicated by FC, 6MWD, and risk status: unchanged or improved disease
[2]; 6 months vs baseline
  patients with worsened FC: none
[2]; 6 months vs baseline, data for 46% of patients
  patients with improved FC: 27%
[2]; 12 months vs baseline
  patients with worsened FC: 10%
[2]; 12 months vs baseline, data for 70% of patients
  patients with improved FC: 21%
[2]; transitioned patients, at 6 and 12 months
  FC versus baseline: maintained in the majority of transitioned patients
[3]; all patients, 12 months
  6MWD versus baseline: modest increase in 6MWD
[3]; transitioned from oral/inhaled PPA, 6 months
  6MWD versus baseline: increased 6MWD
[3]; [7]
  median 6MWD versus baseline: decreased median 6MWD from baseline
[4]; All Patients (N = 56)
  AE leading to selexipag discontinuation: Acute respiratory failure, %: (1.8) %
  AE leading to selexipag discontinuation: Arthralgia, %: (1.8) %
  AE leading to selexipag discontinuation: Cardiac arrest, %: (1.8) %
  AE leading to selexipag discontinuation: Cardiac disorders, %: (7.1) %
  AE leading to selexipag discontinuation: Cardiac failure congestive, %: (1.8) %
  AE leading to selexipag discontinuation: Fluid overload, %: (1.8) %
  AE leading to selexipag discontinuation: Headache, %: (1.8) %
  AE leading to selexipag discontinuation: Investigations, % (Right ventricular systolic pressure): (1.8) %
  AE leading to selexipag discontinuation: Investigations, n (Right ventricular systolic pressure): 1 n
  AE leading to selexipag discontinuation: Musculoskeletal and connective tissue disorders, %: (1.8) %
  AE leading to selexipag discontinuation: Nervous system disorders, %: (1.8) %
  AE leading to selexipag discontinuation: Respiratory failure, %: (1.8) %
  AE leading to selexipag discontinuation: Respiratory, thoracic and mediastinal disorders, %: (8.9) %
  AE leading to selexipag discontinuation: Right ventricular failure, %: (1.8) %
  AE leading to selexipag discontinuation: Right ventricular systolic pressure increased, %: (1.8) %
  AE leading to selexipag discontinuation: Worsening pulmonary hypertension, %: (5.4) %
[4]; Inhaled/Oral (n = 36)
  AE leading to selexipag discontinuation: Acute respiratory failure, %: 2.8%
  AE leading to selexipag discontinuation: Arthralgia, %: 2.8%
  AE leading to selexipag discontinuation: Cardiac arrest, %: 2.8%
  AE leading to selexipag discontinuation: Cardiac disorders, %: 5.6%
  AE leading to selexipag discontinuation: Cardiac failure congestive, %: 2.8%
  AE leading to selexipag discontinuation: Headache, %: 2.8%
  AE leading to selexipag discontinuation: Investigations, n (Right ventricular systolic pressure): 0 n
  AE leading to selexipag discontinuation: Musculoskeletal and connective tissue disorders, %: 2.8%
  AE leading to selexipag discontinuation: Nervous system disorders, %: 2.8%
  AE leading to selexipag discontinuation: Patients with at least one AE, %: 16.7%
  AE leading to selexipag discontinuation: Respiratory failure, %: 2.8%
  AE leading to selexipag discontinuation: Respiratory, thoracic and mediastinal disorders, %: 5.6%
[4]; Parenteral (n = 20)
  AE leading to selexipag discontinuation: Cardiac disorders, %: (10.0) %
  AE leading to selexipag discontinuation: Fluid overload, %: (5.0) %
  AE leading to selexipag discontinuation: Investigations, % (Right ventricular systolic pressure): (5.0) %
  AE leading to selexipag discontinuation: Investigations, n (Right ventricular systolic pressure): 1 n
  AE leading to selexipag discontinuation: Respiratory, thoracic and mediastinal disorders, %: (15.0) %
  AE leading to selexipag discontinuation: Right ventricular failure, %: (5.0) %
  AE leading to selexipag discontinuation: Right ventricular systolic pressure increased, %: (5.0) %
  AE leading to selexipag discontinuation: Worsening pulmonary hypertension, %: (15.0) %
[4]; non-transitioned patients (65 of 194)
  patients who discontinued selexipag: 33.5%
[4]; transitioned patients (16 of 56)
  patients who discontinued selexipag: 28.6%
